Measurements from patent US12427157B2, “Methods for treatment of diseases involving acidic or hypoxic diseased tissues” (Cybrexa 1, Inc., priority 2018, dated 2025).
Residues, ends and D or L forms follow the SMILES beside them. *: point of attachment. X11 = CN(Cc1ccc(-c2[nH]c3cc(F)cc4c3c2CCNC4=O)cc1)C(=O)OCc1ccc(NC(=O)OCCS*)cc1; X12 = C[C@H](COC(=O)N(C)Cc1ccc(-c2[nH]c3cc(F)cc4c3c2CCNC4=O)cc1)S*; X19 = CN(Cc1ccc(-c2[nH]c3cc(F)cc4c3c2CCNC4=O)cc1)C(=O)OCCS*; X2 = NC(=O)c1cccc2[nH]c(-c3ccc(COC(=O)OCCS*)cc3)nc12

Target: PARP (Homo sapiens, UniProt P09874)
Assay: Enzymatic Assay 2: HT Universal Chemiluminescent PARP Assay of cleaved compounds;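 also: PARP reaction with activated DNA run 1 h at room temperature, product detected via streptavidin-HRP and luminescence endpoint reading on a plate reader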
Settings: not given

Chain of PARP (P09874 whole entry): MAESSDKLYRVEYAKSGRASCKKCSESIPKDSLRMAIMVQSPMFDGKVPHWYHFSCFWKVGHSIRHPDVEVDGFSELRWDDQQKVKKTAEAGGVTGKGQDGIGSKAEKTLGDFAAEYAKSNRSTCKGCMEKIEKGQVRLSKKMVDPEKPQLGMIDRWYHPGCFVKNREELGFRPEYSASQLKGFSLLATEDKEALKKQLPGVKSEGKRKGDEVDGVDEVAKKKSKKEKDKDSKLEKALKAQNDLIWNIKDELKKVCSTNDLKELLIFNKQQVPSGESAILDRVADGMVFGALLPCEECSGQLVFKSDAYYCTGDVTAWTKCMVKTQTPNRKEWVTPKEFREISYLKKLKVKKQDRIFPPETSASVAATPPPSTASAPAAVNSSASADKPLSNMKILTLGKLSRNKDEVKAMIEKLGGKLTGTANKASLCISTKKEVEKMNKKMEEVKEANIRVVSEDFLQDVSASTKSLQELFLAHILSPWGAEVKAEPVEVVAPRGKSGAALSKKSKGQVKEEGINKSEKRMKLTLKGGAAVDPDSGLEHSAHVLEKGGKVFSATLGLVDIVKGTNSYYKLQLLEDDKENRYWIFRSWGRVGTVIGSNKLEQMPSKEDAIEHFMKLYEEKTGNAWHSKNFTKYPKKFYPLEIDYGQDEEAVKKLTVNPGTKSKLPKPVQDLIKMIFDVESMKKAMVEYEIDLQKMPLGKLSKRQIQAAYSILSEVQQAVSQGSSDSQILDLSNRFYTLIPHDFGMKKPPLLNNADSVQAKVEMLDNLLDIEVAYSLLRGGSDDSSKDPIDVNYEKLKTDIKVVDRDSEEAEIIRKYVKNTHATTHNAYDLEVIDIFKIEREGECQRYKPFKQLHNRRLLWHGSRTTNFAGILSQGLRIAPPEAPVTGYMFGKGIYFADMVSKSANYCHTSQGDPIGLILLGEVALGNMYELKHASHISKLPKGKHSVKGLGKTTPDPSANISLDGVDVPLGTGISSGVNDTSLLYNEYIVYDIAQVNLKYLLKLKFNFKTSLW

Structure (SMILES) | IC50 [nM]
C[C@]12CCCN1C1=NNC(=O)c3cc(F)cc4[nH]c(c1c34)C2 [R^8H-17, reference compound] | 1

Same assay, conditions: read-out: IC50 Enzymatic Assay 2; Examples cleaved per Example A (crude cleavage solution); R^8H starting materials as such

Structure (SMILES) | IC50 [nM]
CC(C)C[C@H](NC(=O)[C@H](Cc1ccc(O)cc1)NC(=O)[C@H](C)NC(=O)[C@H](CCCNC(=N)N)NC(=O)[C@H](Cc1c[nH]c2ccccc12)NC(=O)[C@@H]1CCCN1C(=O)[C@H](CC(N)=O)NC(=O)[C@H](CCC(N)=O)NC(=O)[C@H](CC(=O)O)NC(=O)[C@H](CC(=O)O)NC(=O)[C@H](C)N)C(=O)N[C@@H](CC(=O)O)C(=O)N[C@@H](CC(C)C)C(=O)N[C@@H](CC(C)C)C(=O)N[C@@H](Cc1ccccc1)C(=O)N1CCC[C@H]1C(=O)N[C@H](C(=O)N[C@@H](CC(=O)O)C(=O)N[C@H](C(=O)N[C@@H](CC(C)C)C(=O)N[C@@H](CC(C)C)C(=O)N[C@@H](CC(C)C)C(=O)N[C@@H](CC(=O)O)C(=O)N[C@@H](CC(C)C)C(=O)N[C@@H](CC(C)C)C(=O)N[C@@H](Cc1c[nH]c2ccccc12)C(=O)N[C@@H](CC(=O)O)C(=O)N[C@@H](C)C(=O)N[C@@H](CC(=O)O)C(=O)N[C@@H](CCC(=O)O)C(=O)N[C@@H](CSS[C@@H](C)COC(=O)N1CCC[C@@H](c2ccc(-n3cc4cccc(C(N)=O)c4n3)cc2)C1)C(=O)NCC(=O)O)[C@@H](C)O)[C@@H](C)O [Example 46] | 3.7
CC(C)C[C@H](NC(=O)[C@H](Cc1ccc(O)cc1)NC(=O)[C@H](C)NC(=O)[C@H](CCCNC(=N)N)NC(=O)[C@H](Cc1c[nH]c2ccccc12)NC(=O)[C@@H]1CCCN1C(=O)[C@H](CC(N)=O)NC(=O)[C@H](CCC(N)=O)NC(=O)[C@H](CC(=O)O)NC(=O)[C@H](CC(=O)O)NC(=O)[C@H](C)N)C(=O)N[C@@H](CC(=O)O)C(=O)N[C@@H](CC(C)C)C(=O)N[C@@H](CC(C)C)C(=O)N[C@@H](Cc1ccccc1)C(=O)N1CCC[C@H]1C(=O)N[C@H](C(=O)N[C@@H](CC(=O)O)C(=O)N[C@H](C(=O)N[C@@H](CC(C)C)C(=O)N[C@@H](CC(C)C)C(=O)N[C@@H](CC(C)C)C(=O)N[C@@H](CC(=O)O)C(=O)N[C@@H](CC(C)C)C(=O)N[C@@H](CC(C)C)C(=O)N[C@@H](Cc1c[nH]c2ccccc12)C(=O)N[C@@H](CC(=O)O)C(=O)N[C@@H](C)C(=O)N[C@@H](CC(=O)O)C(=O)N[C@@H](CCC(=O)O)C(=O)N[C@@H](CSS[C@@H](C)COC(=O)N1CCC[C@]1(C)c1nc2c(C(N)=O)cccc2[nH]1)C(=O)NCC(=O)O)[C@@H](C)O)[C@@H](C)O [Example 52] | 1.1
CC(C)C[C@H](NC(=O)[C@H](Cc1ccc(O)cc1)NC(=O)[C@H](C)NC(=O)[C@H](CCCNC(=N)N)NC(=O)[C@H](Cc1c[nH]c2ccccc12)NC(=O)[C@@H]1CCCN1C(=O)[C@H](CC(N)=O)NC(=O)[C@H](CCC(N)=O)NC(=O)[C@H](CC(=O)O)NC(=O)[C@H](CC(=O)O)NC(=O)[C@H](C)N)C(=O)N[C@@H](CC(=O)O)C(=O)N[C@@H](CC(C)C)C(=O)N[C@@H](CC(C)C)C(=O)N[C@@H](Cc1ccccc1)C(=O)N1CCC[C@H]1C(=O)N[C@H](C(=O)N[C@@H](CC(=O)O)C(=O)N[C@H](C(=O)N[C@@H](CC(C)C)C(=O)N[C@@H](CC(C)C)C(=O)N[C@@H](CC(C)C)C(=O)N[C@@H](CC(=O)O)C(=O)N[C@@H](CC(C)C)C(=O)N[C@@H](CC(C)C)C(=O)N[C@@H](Cc1c[nH]c2ccccc12)C(=O)N[C@@H](CSSC1(COC(=O)N(C)Cc2ccc(-c3[nH]c4cc(F)cc5c4c3CCNC5=O)cc2)CCC1)C(=O)NCC(=O)O)[C@@H](C)O)[C@@H](C)O [Example 44] | 1.5
CC[C@H](C)[C@H](NC(=O)[C@@H]1CCCN1C(=O)[C@H](CC(N)=O)NC(=O)[C@H](CCC(N)=O)NC(=O)[C@H](CCC(=O)O)NC(=O)[C@H](C)N)C(=O)N[C@@H](Cc1ccc(O)cc1)C(=O)N[C@@H](Cc1c[nH]c2ccccc12)C(=O)N[C@@H](C)C(=O)N[C@@H](CCCNC(=N)N)C(=O)N[C@@H](Cc1ccc(O)cc1)C(=O)N[C@@H](C)C(=O)N[C@@H](CC(=O)O)C(=O)N[C@@H](Cc1c[nH]c2ccccc12)C(=O)N[C@@H](CC(C)C)C(=O)N[C@@H](Cc1ccccc1)C(=O)N[C@H](C(=O)N[C@H](C(=O)N1CCC[C@H]1C(=O)N[C@@H](CC(C)C)C(=O)N[C@@H](CC(C)C)C(=O)N[C@@H](CC(C)C)C(=O)N[C@@H](CC(C)C)C(=O)N[C@@H](CC(=O)O)C(=O)N[C@@H](CC(C)C)C(=O)N[C@@H](C)C(=O)N[C@@H](CC(C)C)C(=O)N[C@@H](CC(C)C)C(=O)N[C@H](C(=O)N[C@@H](CC(=O)O)C(=O)N[C@@H](C)C(=O)N[C@@H](CC(=O)O)C(=O)N[C@@H](CCC(=O)O)C(=O)N[C@@H](CSS[C@H](C)COC(=O)N(C)Cc1ccc(-c2[nH]c3cc(F)cc4c3c2CCNC4=O)cc1)C(=O)NCC(=O)O)C(C)C)[C@@H](C)O)[C@@H](C)O [Example 19] (H-AEQNPIYWARYADWLFTTPLLLLDLALLVDADEC(X12)G-OH; N-terminus and C-terminus assumed) | 2.2
CC(C)C[C@H](NC(=O)[C@H](Cc1ccc(O)cc1)NC(=O)[C@H](C)NC(=O)[C@H](CCCNC(=N)N)NC(=O)[C@H](Cc1c[nH]c2ccccc12)NC(=O)[C@@H]1CCCN1C(=O)[C@H](CC(N)=O)NC(=O)[C@H](CCC(N)=O)NC(=O)[C@H](CC(=O)O)NC(=O)[C@H](CC(=O)O)NC(=O)[C@H](C)N)C(=O)N[C@@H](CC(=O)O)C(=O)N[C@@H](CC(C)C)C(=O)N[C@@H](CC(C)C)C(=O)N[C@@H](Cc1ccccc1)C(=O)N1CCC[C@H]1C(=O)N[C@H](C(=O)N[C@@H](CC(=O)O)C(=O)N[C@H](C(=O)N[C@@H](CC(C)C)C(=O)N[C@@H](CC(C)C)C(=O)N[C@@H](CC(C)C)C(=O)N[C@@H](CC(=O)O)C(=O)N[C@@H](CC(C)C)C(=O)N[C@@H](CC(C)C)C(=O)N[C@@H](Cc1c[nH]c2ccccc12)C(=O)N[C@@H](CC(=O)O)C(=O)N[C@@H](C)C(=O)N[C@@H](CC(=O)O)C(=O)N[C@@H](CCC(=O)O)C(=O)N[C@@H](CSSc1ccc(COC(=O)N2CCC[C@]2(C)c2nc3c(C(N)=O)cccc3[nH]2)cc1)C(=O)NCC(=O)O)[C@@H](C)O)[C@@H](C)O [Example 56] | 0.8
CC[C@H](C)[C@H](NC(=O)[C@@H]1CCCN1C(=O)[C@H](CC(N)=O)NC(=O)[C@H](CCC(N)=O)NC(=O)[C@H](CCC(=O)O)NC(=O)[C@H](C)N)C(=O)N[C@@H](Cc1ccc(O)cc1)C(=O)N[C@@H](Cc1c[nH]c2ccccc12)C(=O)N[C@@H](C)C(=O)N[C@@H](CCCNC(=N)N)C(=O)N[C@@H](Cc1ccc(O)cc1)C(=O)N[C@@H](C)C(=O)N[C@@H](CC(=O)O)C(=O)N[C@@H](Cc1c[nH]c2ccccc12)C(=O)N[C@@H](CC(C)C)C(=O)N[C@@H](Cc1ccccc1)C(=O)N[C@H](C(=O)N[C@H](C(=O)N1CCC[C@H]1C(=O)N[C@@H](CC(C)C)C(=O)N[C@@H](CC(C)C)C(=O)N[C@@H](CC(C)C)C(=O)N[C@@H](CC(C)C)C(=O)N[C@@H](CC(=O)O)C(=O)N[C@@H](CC(C)C)C(=O)N[C@@H](C)C(=O)N[C@@H](CC(C)C)C(=O)N[C@@H](CC(C)C)C(=O)N[C@H](C(=O)N[C@@H](CC(=O)O)C(=O)N[C@@H](C)C(=O)N[C@@H](CC(=O)O)C(=O)N[C@@H](CCC(=O)O)C(=O)N[C@@H](CSSCCOC(=O)OCc1ccc(-c2nc3c(C(N)=O)cccc3[nH]2)cc1)C(=O)NCC(=O)O)C(C)C)[C@@H](C)O)[C@@H](C)O [Example 2] (H-AEQNPIYWARYADWLFTTPLLLLDLALLVDADEC(X2)G-OH; N-terminus and C-terminus assumed) | 9.52
CC[C@H](C)[C@H](NC(=O)[C@@H]1CCCN1C(=O)[C@H](CC(N)=O)NC(=O)[C@H](CCC(N)=O)NC(=O)[C@H](CCC(=O)O)NC(=O)[C@H](C)N)C(=O)N[C@@H](Cc1ccc(O)cc1)C(=O)N[C@@H](Cc1c[nH]c2ccccc12)C(=O)N[C@@H](C)C(=O)N[C@@H](CCCNC(=N)N)C(=O)N[C@@H](Cc1ccc(O)cc1)C(=O)N[C@@H](C)C(=O)N[C@@H](CC(=O)O)C(=O)N[C@@H](Cc1c[nH]c2ccccc12)C(=O)N[C@@H](CC(C)C)C(=O)N[C@@H](Cc1ccccc1)C(=O)N[C@H](C(=O)N[C@H](C(=O)N1CCC[C@H]1C(=O)N[C@@H](CC(C)C)C(=O)N[C@@H](CC(C)C)C(=O)N[C@@H](CC(C)C)C(=O)N[C@@H](CC(C)C)C(=O)N[C@@H](CC(=O)O)C(=O)N[C@@H](CC(C)C)C(=O)N[C@@H](C)C(=O)N[C@@H](CC(C)C)C(=O)N[C@@H](CC(C)C)C(=O)N[C@H](C(=O)N[C@@H](CC(=O)O)C(=O)N[C@@H](C)C(=O)N[C@@H](CC(=O)O)C(=O)N[C@@H](CCC(=O)O)C(=O)N[C@@H](CSSCCOC(=O)Nc1ccc(COC(=O)N(C)Cc2ccc(-c3[nH]c4cc(F)cc5c4c3CCNC5=O)cc2)cc1)C(=O)NCC(=O)O)C(C)C)[C@@H](C)O)[C@@H](C)O [Example 32] (H-AEQNPIYWARYADWLFTTPLLLLDLALLVDADEC(X11)G-OH; N-terminus and C-terminus assumed) | 43.9
CC[C@H](C)[C@H](NC(=O)[C@@H]1CCCN1C(=O)[C@H](CC(N)=O)NC(=O)[C@H](CCC(N)=O)NC(=O)[C@H](CCC(=O)O)NC(=O)[C@H](C)N)C(=O)N[C@@H](Cc1ccc(O)cc1)C(=O)N[C@@H](Cc1c[nH]c2ccccc12)C(=O)N[C@@H](C)C(=O)N[C@@H](CCCNC(=N)N)C(=O)N[C@@H](Cc1ccc(O)cc1)C(=O)N[C@@H](C)C(=O)N[C@@H](CC(=O)O)C(=O)N[C@@H](Cc1c[nH]c2ccccc12)C(=O)N[C@@H](CC(C)C)C(=O)N[C@@H](Cc1ccccc1)C(=O)N[C@H](C(=O)N[C@H](C(=O)N1CCC[C@H]1C(=O)N[C@@H](CC(C)C)C(=O)N[C@@H](CC(C)C)C(=O)N[C@@H](CC(C)C)C(=O)N[C@@H](CC(C)C)C(=O)N[C@@H](CC(=O)O)C(=O)N[C@@H](CC(C)C)C(=O)N[C@@H](C)C(=O)N[C@@H](CC(C)C)C(=O)N[C@@H](CC(C)C)C(=O)N[C@H](C(=O)N[C@@H](CC(=O)O)C(=O)N[C@@H](C)C(=O)N[C@@H](CC(=O)O)C(=O)N[C@@H](CCC(=O)O)C(=O)N[C@@H](CSSCCOC(=O)N(C)Cc1ccc(-c2[nH]c3cc(F)cc4c3c2CCNC4=O)cc1)C(=O)NCC(=O)O)C(C)C)[C@@H](C)O)[C@@H](C)O [Example 15] (H-AEQNPIYWARYADWLFTTPLLLLDLALLVDADEC(X19)G-OH; N-terminus and C-terminus assumed) | 6.47
